The values below come from patent US20230167073A1 (Teijin Pharma Limited, priority 2020, published 2023).

The target in this experiment is T1, Human TRPC6 (Homo sapiens, UniProt Q9Y210).
T1 construct: expressed in transfected cells
T1 sequence (Q9Y210 1-931): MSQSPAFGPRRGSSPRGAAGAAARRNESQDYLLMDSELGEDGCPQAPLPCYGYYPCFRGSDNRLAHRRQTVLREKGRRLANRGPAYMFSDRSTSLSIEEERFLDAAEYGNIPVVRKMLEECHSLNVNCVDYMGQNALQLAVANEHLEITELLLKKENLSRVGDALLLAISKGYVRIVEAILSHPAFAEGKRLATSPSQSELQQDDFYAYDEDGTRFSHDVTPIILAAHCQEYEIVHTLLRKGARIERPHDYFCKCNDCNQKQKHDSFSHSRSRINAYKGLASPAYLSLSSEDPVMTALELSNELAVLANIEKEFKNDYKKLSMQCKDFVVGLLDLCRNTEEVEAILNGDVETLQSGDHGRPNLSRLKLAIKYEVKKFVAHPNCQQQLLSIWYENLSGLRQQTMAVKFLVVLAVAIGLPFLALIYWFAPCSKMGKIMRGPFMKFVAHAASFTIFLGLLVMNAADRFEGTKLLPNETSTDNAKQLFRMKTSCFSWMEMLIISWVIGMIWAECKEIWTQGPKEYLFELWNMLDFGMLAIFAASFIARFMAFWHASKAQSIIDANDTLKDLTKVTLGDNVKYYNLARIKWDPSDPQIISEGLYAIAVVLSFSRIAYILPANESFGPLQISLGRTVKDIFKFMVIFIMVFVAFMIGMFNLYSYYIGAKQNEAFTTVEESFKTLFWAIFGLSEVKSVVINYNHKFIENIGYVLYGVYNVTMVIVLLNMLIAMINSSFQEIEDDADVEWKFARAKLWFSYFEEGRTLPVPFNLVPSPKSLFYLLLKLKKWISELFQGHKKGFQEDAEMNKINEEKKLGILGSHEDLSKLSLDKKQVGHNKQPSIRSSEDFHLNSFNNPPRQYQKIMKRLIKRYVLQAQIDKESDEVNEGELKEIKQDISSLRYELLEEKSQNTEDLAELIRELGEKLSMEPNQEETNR
The experiment can be described thus: Evaluation of TRPC6 channel inhibitory activity (1), FLIPR Calcium 5 Assay Kit, OAG stimulation (Compound Nos. 1-1293). Type of experiment: cell-based. The note with it: Human TRPC6 stably-expressing cells, OAG 30 μM, FLIPR Calcium 5 Assay Kit; read-out: Inhibitory activity (pIC50 class) (converted). The essentials:
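TRPC6 (human) stable cells, 24 h culture; Ca5 no-wash dye + probenecid 30 min; cpd 20 min; OAG 30 μM final; ΔF (pre-cpd min to post-OAG max); 0%/100% = no cpd / no cpd + no OAG; 4PL → pIC50, binned +/++/+++.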
In the case of `N#Cc1ccc(-c2ccc(CCN)cc2)c(Oc2cnnc(N3CCOCC3)c2)c1` [Compound 50, 4-[4-(2-aminoethyl)phenyl]-3-(6-morpholin-4-ylpyridazin-4-yl)oxybenzonitrile], the IC50 is below 10 nM.

For `Cc1ccccc1-c1cn(Cc2cc(C#N)ccc2-c2ccc(CCN)cn2)c(C)n1` [compound 1151, 4-[5-(2-aminoethyl)pyridin-2-yl]-3-[[2-methyl-4-(2-methylphenyl)imidazol-1-yl]methyl]benzonitrile], the IC50 was below 10 nM.

`Cc1nc(Oc2cc(C#N)ccc2-n2cc([C@@H](O)CN)cn2)cc(-c2ccccc2C)n1` [compound 358, 4-[4-[(1R)-2-amino-1-hydroxyethyl]pyrazol-1-yl]-3-[2-methyl-6-(2-methylphenyl)pyrimidin-4-yl]oxybenzonitrile]: the IC50 was 10 to 1000 nM.

In the case of `N#Cc1ccc(-c2ncc(CN)cn2)c(Cn2cc(-c3ccccc3)nn2)c1` [compound 1168, 4-[5-(aminomethyl)pyrimidin-2-yl]-3-[(4-phenyltriazol-1-yl)methyl]benzonitrile], the IC50 was 10 to 1000 nM.

On to `Cc1nc(Oc2cc(C#N)ccc2-c2ncc(CCN)cn2)cc(N2CCC2=O)n1` [compound 855, 4-[5-(2-aminoethyl)pyrimidin-2-yl]-3-[2-methyl-6-(2-oxoazetidin-1-yl)pyrimidin-4-yl]oxybenzonitrile], for which the IC50 is 10 to 1000 nM.

Regarding `Cc1nc(Oc2cc(C#N)ccc2-c2ncc(CCN)cn2)cc(N2CCC(F)CC2)n1` [compound 668, 4-[5-(2-aminoethyl)pyrimidin-2-yl]-3-[6-(4-fluoropiperidin-1-yl)-2-methylpyrimidin-4-yl]oxybenzonitrile], the IC50 was below 10 nM.

With `Cc1nc(Oc2cc(F)ccc2-c2ccc(CCN)cn2)cc(N2CCOCC2)n1` [compound 1001, 2-[6-[4-fluoro-2-(2-methyl-6-morpholin-4-ylpyrimidin-4-yl)oxyphenyl]pyridin-3-yl]ethanamine], the IC50 is below 10 nM.

`Cc1nc(Oc2cc(C#N)ccc2-n2cc3c(n2)CCC(N)C3O)cc(-c2ccccc2)n1` (stereo not drawn) [Compound 193, 4-(5-amino-4-hydroxy-4,5,6,7-tetrahydroindazol-2-yl)-3-(2-methyl-6-phenylpyrimidin-4-yl)oxybenzonitrile]: the IC50 was above 1000 nM.

As for `N#Cc1ccc(-c2ncc(CCN)cn2)c(Oc2nnc(-c3ccncc3)s2)c1` [compound 730, 4-[5-(2-aminoethyl)pyrimidin-2-yl]-3-[(5-pyridin-4-yl-1,3,4-thiadiazol-2-yl)oxy]benzonitrile], the IC50 was 10 to 1000 nM.

For the compound `N#Cc1ccc(-c2ccc(CCN)cc2)c(Oc2cnnc(OC3CCCC3)c2)c1` [Compound 107, 4-[4-(2-aminoethyl)phenyl]-3-(6-cyclopentyloxypyridazin-4-yl)oxybenzonitrile], the IC50 is 10 to 1000 nM.

For `Cn1nc(C2CCC2)cc1Oc1cc(C#N)ccc1-c1cnc(C(O)CN)cn1` (stereo not drawn) [Compound 287, 4-[5-(2-amino-1-hydroxyethyl)pyrazin-2-yl]-3-(5-cyclobutyl-2-methylpyrazol-3-yl)oxybenzonitrile], the IC50 is below 10 nM.

Take `Cc1nc(Oc2cc(C#N)ccc2-c2ccc(C(O)CN3CCCC3)cc2)cc(-c2ccccc2)n1` (stereo not drawn) [Compound 97, 4-[4-(1-hydroxy-2-pyrrolidin-1-ylethyl)phenyl]-3-(2-methyl-6-phenylpyrimidin-4-yl)oxybenzonitrile]: the IC50 was above 1000 nM.

Consider `Cc1nc(Oc2cc(C#N)ccc2-c2ccc(CCN)cn2)cc(N2CCOCC2)n1` [Compound 85, 4-[5-(2-aminoethyl)pyridin-2-yl]-3-(2-methyl-6-morpholin-4-ylpyrimidin-4-yl)oxybenzonitrile], for which the IC50 is 10 to 1000 nM.

Turning to `Cn1nc(-c2ccnn2C)cc1Oc1cc(C#N)ccc1-c1ncc(CN)cn1` [compound 945, 4-[5-(aminomethyl)pyrimidin-2-yl]-3-[2-methyl-5-(2-methylpyrazol-3-yl)pyrazol-3-yl]oxybenzonitrile], the IC50 is below 10 nM.

For `Cc1nc(Oc2cc(C#N)ccc2-c2ccc(CCN)cc2)cc(-c2ccccc2O)n1` [Compound 22, 4-[4-(2-aminoethyl)phenyl]-3-[6-(2-hydroxyphenyl)-2-methylpyrimidin-4-yl]oxybenzonitrile], the IC50 is 10 to 1000 nM.

Turning to `Cc1nc(Oc2cc(C#N)ccc2-c2ccc(C[C@H](N)C(N)=O)cc2)cc(-c2ccccc2)n1` [Compound 240, (2S)-2-amino-3-[4-[4-cyano-2-(2-methyl-6-phenylpyrimidin-4-yl)oxyphenyl]phenyl]propanamide], the IC50 was 10 to 1000 nM.

In the case of `N#Cc1ccc(-c2ncc(CN)cn2)c(C(=O)c2cnn(C3CCC3)c2)c1` [compound 1058, 4-[5-(aminomethyl)pyrimidin-2-yl]-3-(1-cyclobutylpyrazole-4-carbonyl)benzonitrile], the IC50 is below 10 nM.

`Cc1nc(N2CCOCC2)ccc1Oc1cc(C#N)ccc1-c1ncc(CN)cn1` [compound 922, 4-[5-(aminomethyl)pyrimidin-2-yl]-3-(2-methyl-6-morpholin-4-ylpyridin-3-yl)oxybenzonitrile]: the IC50 was above 1000 nM.

Regarding `Cc1nc(Oc2cc(C#N)ccc2-n2cc([C@@H](O)CN)cn2)cc(N2CC(F)(F)C2)n1` [Compound 236, 4-[4-[(1R)-2-amino-1-hydroxyethyl]pyrazol-1-yl]-3-[6-(3,3-difluoroazetidin-1-yl)-2-methylpyrimidin-4-yl]oxybenzonitrile], the IC50 was 10 to 1000 nM.

Regarding `Cc1nc(Oc2cc(C#N)ccc2-c2ccc(C(CN)C(F)F)cc2)cc(N2CCOCC2)n1` (stereo not drawn) [Compound 133, 4-[4-(3-amino-1,1-difluoropropan-2-yl)phenyl]-3-(2-methyl-6-morpholin-4-ylpyrimidin-4-yl)oxybenzonitrile], the IC50 is below 10 nM.

For `Cc1cc(Oc2cc(C#N)ccc2-c2ccc([C@H](O)CN)cn2)cc(N2CC(F)C2)n1` [compound 502, 4-[5-[(1S)-2-amino-1-hydroxyethyl]pyridin-2-yl]-3-[2-(3-fluoroazetidin-1-yl)-6-methylpyridin-4-yl]oxybenzonitrile], the IC50 is below 10 nM.

As to `N#Cc1ccc(-c2ccc(CCN)cn2)c(Oc2cc(N3CCCCC3)cnn2)c1` [Compound 92, 4-[5-(2-aminoethyl)pyridin-2-yl]-3-(5-piperidin-1-ylpyridazin-3-yl)oxybenzonitrile], the IC50 was above 1000 nM.

With `Cc1cc(Oc2cc(C#N)ccc2-c2ncc([C@H](O)CN)cn2)cc(-c2nc(C)cs2)n1` [compound 600, 4-[5-[(1S)-2-amino-1-hydroxyethyl]pyrimidin-2-yl]-3-[2-methyl-6-(4-methyl-1,3-thiazol-2-yl)pyridin-4-yl]oxybenzonitrile], the IC50 is 10 to 1000 nM.

Regarding `Cc1nc(Oc2cc(C#N)ccc2-n2cc(C(=O)CN)cn2)cc(-c2ccccc2)n1` [Compound 146, 4-[4-(2-aminoacetyl)pyrazol-1-yl]-3-(2-methyl-6-phenylpyrimidin-4-yl)oxybenzonitrile], the IC50 is above 1000 nM.

On to `Cc1nc(Oc2cc(C#N)ccc2-c2ccc(C(O)CN)cc2C)cc(N2CCOCC2)n1` (stereo not drawn) [Compound 157, 4-[4-(2-amino-1-hydroxyethyl)-2-methylphenyl]-3-(2-methyl-6-morpholin-4-ylpyrimidin-4-yl)oxybenzonitrile], for which the IC50 was below 10 nM.

In the case of `Cn1nc(-c2ccccn2)cc1Oc1nc(C#N)ccc1-c1ccc(CCN)cn1` [compound 1280, 5-[5-(2-aminoethyl)pyridin-2-yl]-6-(2-methyl-5-pyridin-2-ylpyrazol-3-yl)oxypyridine-2-carbonitrile], the IC50 was below 10 nM.

For the compound `N#Cc1ccc(-c2ncc(CN)cn2)c(C(=O)c2cnc(N3CCOCC3)o2)c1` [compound 1082, 4-[5-(aminomethyl)pyrimidin-2-yl]-3-(2-morpholin-4-yl-1,3-oxazole-5-carbonyl)benzonitrile], the IC50 was above 1000 nM.

For the compound `CC(C)c1cn(Cc2cc(C#N)ccc2-c2ncc(CCN)cn2)nn1` [compound 1185, 4-[5-(2-aminoethyl)pyrimidin-2-yl]-3-[(4-propan-2-yltriazol-1-yl)methyl]benzonitrile], the IC50 is below 10 nM.

On to `CCc1cc(C(=O)c2cc(C#N)ccc2-c2ncc(CCN)cn2)n(C)n1` [compound 1025, 4-[5-(2-aminoethyl)pyrimidin-2-yl]-3-(5-ethyl-2-methylpyrazole-3-carbonyl)benzonitrile], for which the IC50 is below 10 nM.

As for `CCN(CC(F)F)c1cc(Oc2cc(F)ccc2-c2ncc(CN)cn2)n(C)n1` [compound 994, 5-[2-[5-(aminomethyl)pyrimidin-2-yl]-5-fluorophenoxy]-N-(2,2-difluoroethyl)-N-ethyl-1 methylpyrazole-3-amine], the IC50 is 10 to 1000 nM.
